The values that follow are results of earlier work, collected in patent US11179353B1, “Composition and method for prevention and treatment of radiation dermatitis” (Rythera Therapeutics, Inc., priority 2020, dated 2021).

In one data set the test system is irradiated breast tissue. As to conditions: topical.
A further data set deals with radiation skin damage. Conditions: retrospective analysis.

Regarding `O=C1O[C@H]([C@@H](O)CO)C(O)=C1O` [Vitamin C], the “improvement in the results of irradiated breast tissue” value with irradiated breast tissue was “without improvement”. `NCCCNCCSP(=O)(O)O` [amifostine]: the dermato-cytoprotective effects entry in the data set on radiation skin damage is given as “significant dermato-cytoprotective effects”.
